Test results: EP3820512B1, “IMMUNOMODULATING COMPOSITIONS COMPRISING OLIGOSACCHARIDE DERIVATIVES” (priority 2018, dated 2020)
“Also recorded” adds a separate entry of the source.

Tests used:
TLR4 [1] = molecular target: T1, TLR4 (Homo sapiens, UniProt O00206); experiment: TLR4 modulation: IL-1β ELISA in hPBMC, alone or with TLR4 ligand LPS; format: cell-based; set-up: endogenous in cells
From the text: Compound 8 modulates the TLR4 activities in a concentration dependent manner.

[2] = system: human peripheral blood monocytes; experiment: IL-10 production in human peripheral blood monocytes; format: cell-based; settings: after 48 h
[3] = system: THP-1 (human monocytic) cells; experiment: Cytokine response (IL-1β, TNF-α, IL-10) of THP-1 cells treated with compounds; format: cell-based; settings: 100-200 µM
Method: When THP-1 (human monocytic) cells were treated with 100-200 µM of compounds 8, 14, 17, 23, 29, and 32, they produced an increased IL-1β and TNF-α response, decreased anti-inflammatory cytokine IL-10 (FIG. 4).

TLR2 = molecular target: T2, TLR2 (Homo sapiens, UniProt O60603); experiment: TLR2 activity in PMA-stimulated THP-1 monocyte cells, ELISA of cell lysate; format: cell-based; settings: THP-1 cells
T2 construct: endogenous in cells; host or cells: THP-1 monocyte cells stimulated with PMA
T2 sequence (O60603 21-784): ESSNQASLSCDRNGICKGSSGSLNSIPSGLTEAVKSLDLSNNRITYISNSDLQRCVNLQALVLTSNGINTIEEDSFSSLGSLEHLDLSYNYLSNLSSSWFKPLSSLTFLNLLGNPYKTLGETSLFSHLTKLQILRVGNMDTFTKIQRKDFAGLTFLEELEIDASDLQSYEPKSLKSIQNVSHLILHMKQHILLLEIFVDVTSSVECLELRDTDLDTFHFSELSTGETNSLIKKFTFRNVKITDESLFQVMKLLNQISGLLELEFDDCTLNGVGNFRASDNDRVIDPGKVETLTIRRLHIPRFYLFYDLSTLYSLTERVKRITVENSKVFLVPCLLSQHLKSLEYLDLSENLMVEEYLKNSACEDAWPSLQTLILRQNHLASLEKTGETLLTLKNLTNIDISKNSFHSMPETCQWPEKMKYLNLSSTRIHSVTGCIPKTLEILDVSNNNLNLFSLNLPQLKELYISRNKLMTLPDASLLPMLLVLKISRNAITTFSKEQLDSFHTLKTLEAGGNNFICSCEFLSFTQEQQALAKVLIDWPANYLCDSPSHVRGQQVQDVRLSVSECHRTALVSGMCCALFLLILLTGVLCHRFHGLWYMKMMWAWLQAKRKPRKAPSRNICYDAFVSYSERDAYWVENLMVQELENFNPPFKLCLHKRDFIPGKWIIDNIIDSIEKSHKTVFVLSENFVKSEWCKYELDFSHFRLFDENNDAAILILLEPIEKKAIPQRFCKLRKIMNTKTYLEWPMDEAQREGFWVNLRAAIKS
Method: THP-1 monocyte cells (1×10^5) were stimulated with 200nM of PMA for 48h and treated with different concentrations of test compounds. The TLR2 activity was measured after 24 h from the cell lysate using ELISA.

TLR4 [4] = molecular target: T1, TLR4; experiment: TLR4 inhibitory and activating activity in THP-1 cells at low and high concentrations; format: cell-based; set-up: endogenous in cells; host or cells: THP-1 (human monocytic) cells
TLR9 = molecular target: T3, TLR9 (Homo sapiens, UniProt Q9NR96); experiment: TLR9 antagonism: IFN-α ELISA in hPBMC with TLR9 ligand ODN2216; format: cell-based; settings: in combination with ODN2216, hPBMC, 48h
T3 construct: endogenous in cells; host or cells: hPBMC (human peripheral blood monocytes)
T3 sequence (Q9NR96 26-1032): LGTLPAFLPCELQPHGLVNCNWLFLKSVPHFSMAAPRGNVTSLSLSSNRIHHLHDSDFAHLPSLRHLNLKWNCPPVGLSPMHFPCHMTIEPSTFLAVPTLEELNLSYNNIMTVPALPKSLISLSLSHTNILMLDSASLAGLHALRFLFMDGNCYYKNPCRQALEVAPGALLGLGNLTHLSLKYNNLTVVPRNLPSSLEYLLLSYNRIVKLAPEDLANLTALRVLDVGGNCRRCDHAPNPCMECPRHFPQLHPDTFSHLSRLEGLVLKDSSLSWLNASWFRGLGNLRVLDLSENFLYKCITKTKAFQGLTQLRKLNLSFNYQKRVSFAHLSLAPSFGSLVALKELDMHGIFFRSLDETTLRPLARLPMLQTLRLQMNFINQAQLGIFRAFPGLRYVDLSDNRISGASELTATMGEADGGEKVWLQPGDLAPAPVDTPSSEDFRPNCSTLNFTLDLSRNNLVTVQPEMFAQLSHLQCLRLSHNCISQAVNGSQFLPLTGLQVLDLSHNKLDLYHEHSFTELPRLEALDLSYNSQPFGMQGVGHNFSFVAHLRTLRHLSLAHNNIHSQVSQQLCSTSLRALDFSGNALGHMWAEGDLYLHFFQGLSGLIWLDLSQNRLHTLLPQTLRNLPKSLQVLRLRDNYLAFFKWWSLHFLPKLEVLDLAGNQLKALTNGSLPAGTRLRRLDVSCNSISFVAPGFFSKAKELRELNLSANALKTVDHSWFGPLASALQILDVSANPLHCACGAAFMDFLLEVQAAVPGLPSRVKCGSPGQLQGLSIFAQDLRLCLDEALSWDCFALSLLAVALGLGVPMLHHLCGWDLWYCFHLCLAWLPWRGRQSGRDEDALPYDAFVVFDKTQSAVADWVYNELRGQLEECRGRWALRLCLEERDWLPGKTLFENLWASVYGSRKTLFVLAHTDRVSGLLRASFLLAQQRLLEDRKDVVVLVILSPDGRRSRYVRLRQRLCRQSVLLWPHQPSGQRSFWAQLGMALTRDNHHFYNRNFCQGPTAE
Method: Compound 8 antagonizes the TLR9 activities and downregulates the production of IFN-α in combination with TLR9 ligand ODN2216 in hPBMC after 48h of treatment as detected by ELISA (FIG. 11).

[5] = system: P. aeruginosa (ATCC-10145 GFP) infected skin wounds; experiment: Murine study of skin wound infection; format: in vivo, C57BL6 mice
Method: Five groups of C57BL/6 mice (8-10 weeks old, n = 4) were wounded on the dorsal surface. 25µl containing 10^6 CFU/mL P. aeruginosa in a PBS suspension were pipetted onto the wound and allowed to absorb for at least 3 min. […] Subsequently and for the next 13 days, infected wounds were treated each alternate day with colistin, or with test compounds.
Along with that less focal inflammation is observed in compound treated groups vs PA group.

hPBMC = experiment: Cytotoxicity in hPBMC, MTT cell proliferation kit; format: cell-based, human; settings: 0.1, 1.0, 10, 100 and 1000 µM, 24h
Method: The cells were treated with compounds and incubated for 24h. Cell viability was assessed using MTT cell proliferation kit (Promega).

T1 sequence (O00206 24-839): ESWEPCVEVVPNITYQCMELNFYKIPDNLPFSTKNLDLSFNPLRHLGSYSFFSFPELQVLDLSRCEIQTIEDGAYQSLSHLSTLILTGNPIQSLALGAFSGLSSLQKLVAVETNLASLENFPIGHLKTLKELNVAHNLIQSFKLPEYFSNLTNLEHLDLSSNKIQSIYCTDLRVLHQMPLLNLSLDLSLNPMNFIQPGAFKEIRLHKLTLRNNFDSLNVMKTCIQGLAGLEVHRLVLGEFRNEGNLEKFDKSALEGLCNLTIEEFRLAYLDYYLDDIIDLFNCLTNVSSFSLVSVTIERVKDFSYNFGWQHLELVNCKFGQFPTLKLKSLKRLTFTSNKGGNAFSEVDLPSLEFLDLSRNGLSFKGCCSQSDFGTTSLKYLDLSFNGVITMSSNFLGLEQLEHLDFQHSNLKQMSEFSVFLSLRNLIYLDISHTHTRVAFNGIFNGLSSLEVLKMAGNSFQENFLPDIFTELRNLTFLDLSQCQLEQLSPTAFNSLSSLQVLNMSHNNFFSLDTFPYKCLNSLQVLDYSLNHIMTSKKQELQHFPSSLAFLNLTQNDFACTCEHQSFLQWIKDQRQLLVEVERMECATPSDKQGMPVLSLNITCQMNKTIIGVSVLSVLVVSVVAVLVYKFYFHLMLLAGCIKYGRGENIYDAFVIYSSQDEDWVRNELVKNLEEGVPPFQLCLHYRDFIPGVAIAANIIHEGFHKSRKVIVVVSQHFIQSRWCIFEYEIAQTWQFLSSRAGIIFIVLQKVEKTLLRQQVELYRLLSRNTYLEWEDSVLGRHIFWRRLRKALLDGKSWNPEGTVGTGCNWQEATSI
T1 sequence (Q9Y6Y9 17-160 partner limits assumed): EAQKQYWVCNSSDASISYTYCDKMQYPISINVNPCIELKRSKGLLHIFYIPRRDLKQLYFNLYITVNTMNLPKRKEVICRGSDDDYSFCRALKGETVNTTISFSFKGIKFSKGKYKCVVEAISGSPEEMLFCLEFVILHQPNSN

For `CC(=O)N[C@H]1[C@H](Oc2ccc([N+](=O)[O-])cc2)O[C@H](CO)[C@@H](O)[C@@H]1O` [Compound 8, p-Nitrophenyl 2-acetamido-2-deoxy-β-D-glucopyranoside], the IL-1β protein level (TLR4 [1]; 0.1 µM to <1 µM, alone or in combination with LPS, 24h, ELISA) was “downregulate”, the “production of IL-1β” value (TLR4 [1]; 1.0 µM, alone and in combination with LPS) was “significantly stimulated” and the IL-10 production ([2]; 0.1-1.0 µM) was “increase”. For the same compound, the IL-10 production ([2]; 10-100 µM) was “decrease”, the IL-1β response [3] was “increased” and the TNF-α response [3] was “increased”. The “anti-inflammatory cytokine IL-10” value [3] was “decreased”, the “% inhibition over control TLR2” value (TLR2; Concentration 1-10 µM) was “+ (+ means that the % of inhibition or activation is in the range of 15-25%)” and the “% inhibition over control TLR2” value (TLR2; Concentration 75-100 µM) was “++ (++ means that the % of inhibition or activation is in the range of 25-75%)”. The “% inhibition over control TLR4” value (TLR4 [4]; Concentration 1-10 µM, THP-1 cells) was “+++ (+++ means that the % of inhibition or activation is in the range of 75-95%)”, the “% activation over control TLR4” value (TLR4 [4]; Concentration 75-100 µM, THP-1 cells) was “++ (++ means that the % of inhibition or activation is in the range of 25-75%)” and the TLR4 modulatory activity (TLR4 [4]; summary in words) was “concentration dependent TLR4 modulatory activity”. For the same compound, the “production of IFN-α” value (TLR9) was “downregulates”, the “CFU in tissues / bacterial counts” value ([5]; 13 days post infection, vs untreated control) was “decreased; also recorded: statistically significant reduction” and the “Re-epithelialization and granulation tissue” value ([5]; H&E histology, day 13 post-injury, vs controls, p=0.050 (Colistin, compound 1), p=0.073 (compound 8)) was “borderline non-significant”. For the same compound, the “closure of P. aeruginosa infected skin wounds” value ([5]; topical, each alternate day, day 13, compounds 100µM / 100µg /ml, Colistin 4µg/ml) was “effectively closed; also recorded: complete closure” and the “cytotoxicity in hPBMC (cell viability)” value (hPBMC) was “not toxic”.
